The values that follow are results of earlier work, collected in US20260248891A1, “TIRZEPATIDE COMPOSITIONS AND USE” (Eli Lilly and Company, priority 2022, published 2026).

In this series the test system is patients with obesity or overweight. The settings on record: Phase 3 study, currently approved doses.

Take tirzepatide: the weight loss was 15.7%.
